Assay results from PubChem BioAssay (NCI).
Where “and” joins values, the source holds several entries; their conditions need not be identical. Equal values may be shown once.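 Tested at 5 concentrations; 48 h exposure; 96-well plates; endpoints linearly interpolated, else capped at highest concentration. GI50: concentration for 50% inhibition of growth. TGI denotes the concentration required for complete inhibition of growth.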

Tests used:
Experiment in all cases: NCI-60 cell line screen, 48 h
[1] = system: MDA-N
[2] = system: U251 CNS
[3] = system: COLO 205 colon
[4] = system: MALME-3M melanoma
[5] = system: HCT-15 colon
[6] = system: SNB-75 CNS
[7] = system: OVCAR-4 ovarian
[8] = system: OVCAR-8 ovarian
[9] = system: SW-620 colon
[10] = system: KM12 colon
[11] = system: SK-OV-3 ovarian
[12] = system: T-47D breast
[13] = system: RPMI-8226 leukemia
[14] = system: BT-549 breast
[15] = system: DU-145 prostate
[16] = system: EKVX NSCLC
[17] = system: A498 renal
[18] = system: UO-31 renal
[19] = system: SF-268 CNS
[20] = system: SNB-19 CNS
[21] = system: SK-MEL-28 melanoma
[22] = system: NCI-H23 lung
[23] = system: SF-539 CNS
[24] = system: K-562 leukemia
[25] = system: HOP-62 NSCLC
[26] = system: LOX IMVI melanoma
[27] = system: OVCAR-5 ovarian
[28] = system: HOP-92 NSCLC
[29] = system: SK-MEL-2 melanoma
[30] = system: NCI-H460 lung
[31] = system: UACC-62 melanoma
[32] = system: NCI-H522 lung
[33] = system: TK-10 renal
[34] = system: 786-0 renal
[35] = system: CAKI-1 renal
[36] = system: MDA-MB-435
[37] = system: PC-3 prostate
[38] = system: HT29 colon
[39] = system: HCT-116 colon
[40] = system: UACC-257 melanoma
[41] = system: HL-60(TB) leukemia
[42] = system: NCI/ADR-RES ovarian
[43] = system: SN12C renal
[44] = system: MDA-MB-231 breast
[45] = system: MOLT-4 leukemia
[46] = system: NCI-H226 lung
[47] = system: SF-295 CNS
[48] = system: SK-MEL-5 melanoma
[49] = system: CCRF-CEM leukemia
[50] = system: OVCAR-3 ovarian
[51] = system: A549 NSCLC
[52] = system: M14 melanoma
[53] = system: ACHN renal
[54] = system: RXF 393 renal
[55] = system: MCF7 breast
[56] = system: HCC-2998 colon
[57] = system: IGROV1 ovarian
[58] = system: SR leukemia

## Cc1cc(-c2c(Br)cc(C(=O)O)n2C)on1
[1]
  TGI: > 100 µM
[2]
  TGI: > 100 µM
[3]
  TGI: > 100 µM
[4]
  TGI: > 100 µM
[5]
  TGI: > 100 µM
[6]
  TGI: > 100 µM
[7]
  TGI: > 100 µM
[8]
  TGI: > 100 µM
[9]
  TGI: > 100 µM
[10]
  TGI: > 100 µM
[11]
  TGI: > 100 µM
[12]
  TGI: > 100 µM
[13]
  TGI: > 100 µM
[14]
  TGI: > 100 µM
[15]
  TGI: > 100 µM
[16]
  TGI: > 100 µM
[17]
  TGI: > 100 µM
[18]
  TGI: > 100 µM
[19]
  TGI: > 100 µM
[20]
  TGI: > 100 µM
[21]
  TGI: > 100 µM
[22]
  TGI: > 100 µM
[23]
  TGI: > 100 µM
[24]
  TGI: > 100 µM
[25]
  TGI: > 100 µM
[26]
  TGI: > 100 µM
[27]
  TGI: > 100 µM
[28]
  TGI: > 100 µM
[29]
  TGI: > 100 µM
[30]
  TGI: > 100 µM
[31]
  TGI: > 100 µM
[32]
  TGI: > 100 µM
[33]
  TGI: > 100 µM
[34]
  TGI: > 100 µM
[35]
  TGI: > 100 µM
[36]
  TGI: > 100 µM
[37]
  TGI: > 100 µM
[38]
  TGI: > 100 µM
[39]
  TGI: > 100 µM
[40]
  TGI: > 100 µM
[41]
  TGI: > 100 µM
[42]
  TGI: > 100 µM
[43]
  TGI: > 100 µM
[44]
  TGI: > 100 µM
[45]
  TGI: > 100 µM
[46]
  TGI: > 100 µM
[47]
  TGI: > 100 µM
[48]
  TGI: > 100 µM
[49]
  TGI: > 100 µM
[50]
  TGI: > 100 µM
[51]
  TGI: > 100 µM
[52]
  TGI: > 100 µM
[53]
  TGI: > 100 µM

## CCCCCCCCCCCC[C@H](O)[C@H]1CC[C@H]([C@H](O)CCCC[C@H](O)CCCCC[C@@H](O)CC2=C[C@H](C)OC2=O)O1
[1]
  GI50: 14.3 µM
  TGI: 30.5 µM
[2]
  TGI: > 100 µM
[3]
  GI50: 16.4 µM
  TGI: 32.7 µM
[4]
  TGI: 32.2 µM
[5]
  GI50: 18.7 µM
  TGI: 57.8 µM
[6]
  GI50: 16.3 µM
  TGI: 31.7 µM
[7]
  TGI: 36.1 µM
[9]
  GI50: 21.6 µM
  TGI: 64 µM
[10]
  GI50: 16.9 µM
  TGI: 35.9 µM
[12]
  GI50: 2.82 µM
  TGI: 21.6 µM
[14]
  GI50: 12.7 µM
[16]
  GI50: 2.5 µM
  TGI: 10.9 µM
[18]
  GI50: 14.6 µM
  TGI: 7.44 µM and 28.8 µM
[19]
  GI50: 17 µM
  TGI: 40.3 µM
[20]
  GI50: 13.3 µM
  TGI: 27.7 µM
[21]
  GI50: 20 µM
  TGI: 41.2 µM
[22]
  GI50: 0.46 µM
  TGI: 22.2 µM
[23]
  TGI: 29.5 µM
[24]
  GI50: 0.0621 µM
  TGI: 26.9 µM
[25]
  GI50: 17.5 µM
  TGI: 31.8 µM
[26]
  GI50: 2.19 µM
  TGI: 3.72 µM and 22.9 µM
[27]
  TGI: 31.7 µM
[28]
  GI50: 23.7 µM
  TGI: 52.9 µM
[29]
  GI50: 19.9 µM
  TGI: 36.2 µM
[30]
  GI50: 0.986 µM
  TGI: 22.9 µM
[31]
  TGI: 7.17 µM
[54]
  TGI: 33.2 µM
[32]
  TGI: 19.7 µM
[33]
  GI50: 13.1 µM
  TGI: 26.8 µM
[34]
  GI50: 18.5 µM
  TGI: 34.5 µM
[35]
  GI50: 17.5 µM
  TGI: 36.4 µM
[55]
  GI50: 10.9 µM
  TGI: 25.4 µM
[36]
  GI50: 15.6 µM
  TGI: 8.48 µM and 38.8 µM
[37]
  GI50: 16.2 µM
  TGI: 29.8 µM
[39]
  GI50: 0.636 µM
  TGI: 22.7 µM
[40]
  GI50: 1.69 µM
  TGI: 5.81 µM and 19 µM
[41]
  TGI: 8.05 µM
[42]
  GI50: 14.5 µM
  TGI: 34.4 µM
[43]
  GI50: 17.8 µM
  TGI: 38.8 µM
[44]
  GI50: 16.2 µM
  TGI: 40.9 µM
[45]
  GI50: 3.67 µM
  TGI: 24.9 µM
[46]
  GI50: 17.4 µM
  TGI: 43.3 µM
[47]
  GI50: 3 µM
  TGI: 20.1 µM
[56]
  TGI: 33.9 µM
[48]
  GI50: 0.0602 µM
  TGI: 15.6 µM
[49]
  GI50: 5.62 µM
  TGI: 27.3 µM
[50]
  GI50: 17.2 µM
  TGI: 9.34 µM and 32.4 µM
[51]
  GI50: 12.4 µM
  TGI: 28.5 µM
[52]
  GI50: 14.2 µM
  TGI: 27.4 µM
[53]
  GI50: 11.2 µM
  TGI: 5.5 µM and 23.8 µM

## O=c1c2ccccc2n2c(=S)[nH]nc2n1-c1ccccc1
[1]
  TGI: > 100 µM
[2]
  TGI: > 100 µM
[3]
  TGI: > 100 µM
[4]
  TGI: > 100 µM
[5]
  TGI: > 100 µM
[6]
  TGI: 84 µM
[7]
  TGI: > 100 µM
[8]
  TGI: > 100 µM
[9]
  TGI: > 100 µM
[10]
  TGI: > 100 µM
[11]
  TGI: > 100 µM
[12]
  TGI: > 100 µM
[15]
  TGI: > 100 µM
[16]
  TGI: > 100 µM
[17]
  TGI: > 100 µM
[18]
  TGI: > 100 µM
[19]
  TGI: > 100 µM
[20]
  TGI: > 100 µM
[21]
  TGI: > 100 µM
[22]
  TGI: > 100 µM
[23]
  TGI: > 100 µM
[24]
  TGI: > 100 µM
[25]
  TGI: > 100 µM
[26]
  TGI: > 100 µM
[27]
  TGI: > 100 µM
[29]
  TGI: > 100 µM
[30]
  TGI: > 100 µM
[57]
  TGI: > 100 µM
[31]
  TGI: > 100 µM
[54]
  TGI: > 100 µM
[32]
  TGI: > 100 µM
[33]
  TGI: > 100 µM
[34]
  TGI: > 100 µM
[35]
  TGI: > 100 µM
[55]
  TGI: > 100 µM
[36]
  TGI: > 100 µM
[37]
  TGI: > 100 µM
[38]
  TGI: > 100 µM
[39]
  TGI: > 100 µM
[40]
  TGI: > 100 µM
[41]
  TGI: > 100 µM
[42]
  TGI: > 100 µM
[43]
  TGI: > 100 µM
[44]
  TGI: > 100 µM
[45]
  TGI: > 100 µM
[58]
  TGI: > 100 µM
[46]
  TGI: > 100 µM
[47]
  TGI: > 100 µM
[56]
  TGI: > 100 µM
[48]
  TGI: > 100 µM
[49]
  TGI: > 100 µM
[50]
  TGI: > 100 µM
[51]
  TGI: > 100 µM
[52]
  TGI: > 100 µM
[53]
  TGI: > 100 µM

## NN/C(=N\S(=O)(=O)c1ccc(-c2ccccn2)s1)Nc1ccc(Cl)cc1
[1]
  TGI: > 100 µM
[2]
  TGI: > 100 µM
[3]
  TGI: > 100 µM
[5]
  TGI: > 100 µM
[6]
  TGI: 69.2 µM
[7]
  TGI: > 100 µM
[8]
  TGI: > 100 µM
[9]
  TGI: > 100 µM
[10]
  TGI: > 100 µM
[11]
  TGI: > 100 µM
[12]
  TGI: > 100 µM
[13]
  TGI: > 100 µM
[14]
  TGI: > 100 µM
[15]
  TGI: > 100 µM
[16]
  TGI: > 100 µM
[17]
  TGI: > 100 µM
[18]
  TGI: > 100 µM
[19]
  TGI: 84.2 µM
[20]
  TGI: > 100 µM
[21]
  TGI: > 100 µM
[22]
  TGI: > 100 µM
[23]
  TGI: > 100 µM
[24]
  TGI: > 100 µM
[25]
  TGI: > 100 µM
[26]
  TGI: > 100 µM
[27]
  TGI: > 100 µM
[28]
  TGI: > 100 µM
[29]
  TGI: > 100 µM
[30]
  TGI: > 100 µM
[57]
  TGI: > 100 µM
[31]
  TGI: > 100 µM
[54]
  TGI: 94 µM
[32]
  TGI: 57.1 µM
[33]
  TGI: > 100 µM
[34]
  TGI: > 100 µM
[35]
  TGI: > 100 µM
[55]
  TGI: > 100 µM
[37]
  TGI: > 100 µM
[38]
  TGI: > 100 µM
[39]
  TGI: > 100 µM
[40]
  TGI: > 100 µM
[41]
  TGI: > 100 µM
[42]
  TGI: > 100 µM
[43]
  TGI: > 100 µM
[44]
  TGI: > 100 µM
[45]
  TGI: > 100 µM
[46]
  TGI: > 100 µM
[47]
  TGI: > 100 µM
[48]
  TGI: > 100 µM
[50]
  TGI: > 100 µM
[51]
  TGI: > 100 µM
[52]
  TGI: > 100 µM
[53]
  TGI: > 100 µM
